Test results as given in patent US7138361B2, “Herbicidal heterocycles” (E. I. du Pont de Nemours and Company, priority 2000, dated 2006).

Columns and labels:
Format in all cases: in vivo
[1] = tested on: Nightshade; test: Test C preemergence
[2] = tested on: Sunflower; test: Test C preemergence; conditions: Rate 500 g/ha, scale 0 to 100
[3] = tested on: Surinam grass (Brachiaria decumbens); test: Test C preemergence
Method in brief: (§1)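 Visual injury scores of 0–100, with 100 meaning complete control, were given relative to controls after 12–14 days in the greenhouse. Treatments used a surfactant-containing non-phytotoxic solvent formulation, sprayed on seeded pots preemergence or on 1–4-leaf plants of 2–18 cm postemergence.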

[4] = tested on: bermudagrass (Cynodon dactylon); test: Test C preemergence
Method in brief: as §1

[5] = tested on: cocklebur (Xanthium strumarium); test: Test C preemergence
Method in brief: as §1

[6] = tested on: common ragweed (Ambrosia elatior); test: Test C preemergence
Method in brief: as §1

[7] = tested on: corn (Zea mays); test: Test C preemergence
Method in brief: as §1

[8] = tested on: crabgrass (Digitaria sanguinalis); test: Test C preemergence
Method in brief: as §1

[9] = tested on: giant foxtail (Setaria faberii); test: Test C preemergence
Method in brief: as §1

[10] = tested on: goosegrass (Eleusine indica); test: Test C preemergence
Method in brief: as §1

[11] = tested on: johnsongrass (Sorghum halepense); test: Test C preemergence
Method in brief: as §1

[12] = tested on: kochia (Kochia scoparia); test: Test C preemergence
Method in brief: as §1

[13] = tested on: lambsquarters (Chenopodium album); test: Test C preemergence
Method in brief: as §1

[14] = tested on: morningglory (Ipomoea hederacea); test: Test C preemergence
Method in brief: as §1

[15] = tested on: pigweed (Amaranthus retroflexus); test: Test C preemergence
Method in brief: as §1

[16] = tested on: soybean (Glycine max); test: Test C preemergence
Method in brief: as §1

[17] = tested on: velvetleaf (Abutilon theophrasti); test: Test C preemergence
Method in brief: as §1

[18] = tested on: woolly cupgrass (Eriochloa villosa); test: Test C preemergence
Method in brief: as §1

[19] = tested on: yellow nutsedge (Cyperus esculentus); test: Test C preemergence
Method in brief: as §1

[20] = tested on: barnyardgrass (Echinochloa crus-galli); test: Test C flooded paddy test; conditions: for Barnyardgrass plant response rating: Flooded Paddy, scale 0 to 100, 0 no effect, 100 complete control; for Plant response rating, Barnyardgrass: flooded paddy test, scale 0 to 100 (0 no effect, 100 complete control)
Method in brief: (§2)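 Rice and three paddy weeds were grown to the 2-leaf stage under flooded conditions, then treated and kept in a greenhouse for 12–14 days. Response was rated visually against untreated controls on a 0–100 scale, where 100 is complete control.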

[21] = tested on: rice (Oryza saliva); test: Test C flooded paddy test; conditions: for Rice plant response rating: Flooded Paddy, scale 0 to 100, 0 no effect, 100 complete control; for Plant response rating, Rice: flooded paddy test, scale 0 to 100 (0 no effect, 100 complete control)
Method in brief: as §2

[22] = tested on: Sunflower; test: Test C preemergence; conditions: Rate 250 g/ha, visual evaluation after 12 to 14 days
[23] = Rate 62 g/ha, scale 0 to 100, 0 no effect, 100 complete control
[24] = Preemergence, Rate 500 g/ha, scale 0 to 100
[25] = preemergence, Rate 250 g/ha, visual evaluation after 12 to 14 days
[26] = preemergence, Rate 125 g/ha, scale 0 to 100, 0 no effect, 100 complete control

CC(C)(C)c1ccn(C2CCN(c3ccc(Cl)c(Br)c3)C2=O)n1 (stereo not shown) [Compound 56]
90: Plant response rating (0 to 100 where 0 is no effect and 100 is complete control), Bermudagrass [4, 25] | Plant response rating (0 to 100), Crabgrass [8, 25] | Plant response rating, Foxtail, Giant [9, 24] | Plant response rating (0 to 100), Goosegrass [10, 25] | Plant response rating, Pigweed [15, 26]
40: Plant response rating, Bermudagrass [4, 23]
20: Plant response rating, Nightshade ([1]; Rate 500 g/ha, scale 0 to 100) | Plant response rating, Ragweed, Common [6, 24] | Plant response rating, Velvetleaf [17, 24]
60: Plant response rating, Goosegrass [10, 23]
50: Plant response rating, Bermudagrass [4, 26] | Plant response rating, Kochia [12, 23]
30: Plant response rating, Crabgrass [8, 23] | Plant response rating, Crabgrass [8, 26] | Barnyardgrass plant response rating ([20]; Rate 250 g/ha) | Barnyardgrass plant response rating ([20]; Rate 500 g/ha) | Plant response rating, Barnyardgrass ([20]; Rate 125 g/ha)
0: Plant response rating, Nightshade [1, 23] | Plant response rating, Nightshade ([1]; Rate 125 g/ha, scale 0 to 100, 0 no effect, 100 complete control) | Plant response rating, Sunflower [2] | Plant response rating, Surinam grass [3, 24] | Plant response rating, Surinam grass [3, 23] | Plant response rating (0 to 100), Surinam grass [3, 25] | Plant response rating, Surinam grass [3, 26] | Plant response rating, Cocklebur [5, 23] | Plant response rating (0 to 100), Cocklebur [5, 25] | Plant response rating, Cocklebur [5, 26] | Plant response rating (0 to 100), Ragweed, Common [6, 25] | Plant response rating, Ragweed, Common [6, 26] | Plant response rating, Corn [7, 24] | Plant response rating, Corn [7, 23] | Plant response rating (0 to 100), Corn [7, 25] | Plant response rating, Corn [7, 26] | Plant response rating, Foxtail, Giant [9, 23] | Plant response rating, Foxtail, Giant [9, 26] | Plant response rating, Johnsongrass [11, 24] | Plant response rating, Johnsongrass [11, 23] | Plant response rating (0 to 100), Johnsongrass [11, 25] | Plant response rating, Johnsongrass [11, 26] | Plant response rating, Morningglory [14, 24] | Plant response rating, Morningglory [14, 23] | Plant response rating (0 to 100), Morningglory [14, 25] | Plant response rating, Morningglory [14, 26] | Plant response rating (0 to 100), Pigweed [15, 25] | Plant response rating, Soybean [16, 24] | Plant response rating (0 to 100), Soybean [16, 25] | Plant response rating, Soybean [16, 26] | Plant response rating (0 to 100), Velvetleaf [17, 25] | Plant response rating, Velvetleaf [17, 26] | Plant response rating, Cupgrass, Woolly [18, 23] | Plant response rating (0 to 100), Cupgrass, Woolly [18, 25] | Plant response rating, Cupgrass, Woolly [18, 26] | Plant response rating, Nutsedge [19, 24] | Plant response rating, Nutsedge [19, 23] | Plant response rating (0 to 100), Nutsedge [19, 25] | Plant response rating, Nutsedge [19, 26] | Plant response rating, Barnyardgrass ([20]; Rate 62 g/ha) | Rice plant response rating ([21]; Rate 250 g/ha) | Rice plant response rating ([21]; Rate 500 g/ha) | Plant response rating, Rice ([21]; Rate 62 g/ha) | Plant response rating, Rice ([21]; Rate 125 g/ha) | Plant response rating (0 to 100), Sunflower [22]
70: Plant response rating, Kochia [12, 26] | Plant response rating, Cupgrass, Woolly [18, 24]
80: Plant response rating, Goosegrass [10, 26]
100: Plant response rating, Bermudagrass [4, 24] | Plant response rating, Cocklebur [5, 24] | Plant response rating, Crabgrass [8, 24] | Plant response rating, Goosegrass [10, 24] | Plant response rating, Kochia [12, 24] | Plant response rating (0 to 100), Kochia [12, 25] | Plant response rating, Lambsquarters [13, 24] | Plant response rating, Lambsquarters [13, 23] | Plant response rating (0 to 100), Lambsquarters [13, 25] | Plant response rating, Lambsquarters [13, 26] | Plant response rating, Pigweed [15, 24]
